Where two headings read alike, the source gives them in different places.
Target: T1, GLP-1 Receptor (GLP1R) (Homo sapiens, UniProt P43220)
T1 construct: host or cells: HEK293/GLP1R/CRE-LUC
Assay: GLP-1R agonist cAMP stimulation assay (Method 3)
Format: cell-based
Settings: HEK293/GLP1R/CRE-LUC cells (HDB), Method 3, 30 min incubation
Protocol: Method 3: Activation of GLP-1 receptor is known to stimulate cyclic AMP (cAMP) production in cells which indicates primary coupling to the Gαs subunit of the G protein heterotrimeric complex.
To optimize functional activity directed toward Gαs coupling, a HEK293/CRE-Luc cell line developed by HDB stably expressing the GLP-1 Receptor was used, 200× concentration of compound working solutions were prepared (Agilent Technologies Bravo) with 1/2 log serial dilution in 384-well Echo LDV plate (Labcyte, Cat #LP-0200). 50 nL/well 200× concentration of compound working solutions were moved to 384-well white low volume plate (Greiner, Cat #784075) using Labcyte ECHO550. 1×10^5 cells/mL HEK293/GLP1R/CRE-LUC(HD Biosciences) cell suspensions prepared with assay buffer [DPBS containing 0.5 mM IBMX (Sigma, Cat #15879) and 0.1% BSA (GENVIEW, Cat #FA016-100 g)], 10 μL cell suspensions were added to each well of previous generated assay plate which already contains 50 nL compound at 200× concentration using ThermoFisher Multidrop Combi (1000 cells/well). Seal the plate and incubate at 37° C. with 5% CO2 for 30 min.
After incubation the cAMP assay signal was generated using cAMP dynamic 2 Kit (Cisbio). 5 μL cAMP-d2 working solution was added to each well, followed with 5 μL Anti-cAMP antibody-cryptate working solution added to each well using ThermoFisher Multidrop Combi. Incubate at room temperature for 1 hour protected from light. Read the fluorescence at 665 nm and 615 nm with Reader PerkinElmer EnVision.

[1] = read-out: GLP1R cAMP Stimulation DR: EC50 (nM) [Species: Human, Assay Cell Line: HDB]
[2] = read-out: GLP1R cAMP Stimulation DR: pEC50 (M) [Species: Human, Assay Cell Line: HDB] (converted)

T1 sequence (P43220 24-463): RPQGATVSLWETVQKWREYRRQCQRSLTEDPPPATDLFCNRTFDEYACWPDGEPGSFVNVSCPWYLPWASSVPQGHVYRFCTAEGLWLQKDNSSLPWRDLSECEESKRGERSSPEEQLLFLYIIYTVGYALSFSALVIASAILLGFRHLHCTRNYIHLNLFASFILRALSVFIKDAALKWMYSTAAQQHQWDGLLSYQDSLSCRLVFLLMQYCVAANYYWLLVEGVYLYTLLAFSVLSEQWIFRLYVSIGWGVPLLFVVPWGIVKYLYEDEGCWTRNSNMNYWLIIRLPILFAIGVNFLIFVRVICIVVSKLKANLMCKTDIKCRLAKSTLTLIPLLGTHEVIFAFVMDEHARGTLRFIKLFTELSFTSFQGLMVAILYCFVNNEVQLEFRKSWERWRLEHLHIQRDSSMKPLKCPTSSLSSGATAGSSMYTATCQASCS

EC50 [1] [nM] | EC50 [2] [nM] | Structure (SMILES)
0.1 to 0.2 | 0.1 to 1 | Cc1cc(-n2nc3c(c2-n2ccn(-c4ccc(P5(=O)CCN(C)CC5)cc4)c2=O)[C@H](C)N(C(=O)c2cc4cc(C5CCOCC5)ccc4n2[C@@]2(c4noc(=O)[nH]4)C[C@@H]2C)CC3)cc(C)c1F [Compound 126a, 3-((1S,2S)-1-(2-((S)-2-(4-fluoro-3,5-dimethylphenyl)-4-methyl-3-(3-(4-(1-methyl-4-oxido-1,4-azaphosphinan-4-yl)phenyl)-2-oxo-2,3-dihydro-1H-imidazol-1-yl)-4,5,6,7-tetrahydro-2H-pyrazolo[4,3-c]pyridine-5-carbonyl)-5-(tetrahydro-2H-pyran-4-yl)-1H-indol-1-yl)-2-methylcyclopropyl)-1,2,4-oxadiazol-5(4H)-one]
< 0.1 | ≤ 0.1 | Cc1cc(-n2nc3c(c2-n2ccn(-c4ccc(P5(=O)CCCC5)cc4)c2=O)[C@H](C)N(C(=O)c2cc4cc(C5CCOCC5)ccc4n2[C@@]2(c4noc(=O)[nH]4)C[C@@H]2C)CC3)cc(C)c1F [Compound 127a, 3-((1S,2S)-1-(2-((S)-2-(4-fluoro-3,5-dimethylphenyl)-4-methyl-3-(3-(4-(1-oxidophospholan-1-yl)phenyl)-2-oxo-2,3-dihydro-1H-imidazol-1-yl)-4,5,6,7-tetrahydro-2H-pyrazolo[4,3-c]pyridine-5-carbonyl)-5-(tetrahydro-2H-pyran-4-yl)-1H-indol-1-yl)-2-methylcyclopropyl)-1,2,4-oxadiazol-5(4H)-one]
< 0.1 | ≤ 0.1 | Cc1cc(-n2nc3c(c2-n2ccn(-c4ccc(P(=O)(C(C)C)C(C)C)cc4)c2=O)[C@H](C)N(C(=O)c2cc4cc(C5CCOCC5)ccc4n2[C@@]2(c4noc(=O)[nH]4)C[C@@H]2C)CC3)cc(C)c1F [Compound 128a, 3-((1S,2S)-1-(2-((S)-3-(3-(4-(diisopropylphosphoryl)phenyl)-2-oxo-2,3-dihydro-1H-imidazol-1-yl)-2-(4-fluoro-3,5-dimethylphenyl)-4-methyl-4,5,6,7-tetrahydro-2H-pyrazolo[4,3-c]pyridine-5-carbonyl)-5-(tetrahydro-2H-pyran-4-yl)-1H-indol-1-yl)-2-methylcyclopropyl)-1,2,4-oxadiazol-5(4H)-one]
< 0.1 | ≤ 0.1 | CCP(=O)(CC)c1ccc(-n2ccn(-c3c4c(nn3-c3cc(C)c(F)c(C)c3)CCN(C(=O)c3cc5cc(C6CCOCC6)ccc5n3[C@@]3(c5noc(=O)[nH]5)C[C@@H]3C)[C@H]4C)c2=O)cc1 [Compound 129a, 3-((1S,2S)-1-(2-((S)-3-(3-(4-(diethylphosphoryl)phenyl)-2-oxo-2,3-dihydro-1H-imidazol-1-yl)-2-(4-fluoro-3,5-dimethylphenyl)-4-methyl-4,5,6,7-tetrahydro-2H-pyrazolo[4,3-c]pyridine-5-carbonyl)-5-(tetrahydro-2H-pyran-4-yl)-1H-indol-1-yl)-2-methylcyclopropyl)-1,2,4-oxadiazol-5(4H)-one]
0.1 to 0.2 | 0.1 to 1 | CNc1cc(-n2ccn(-c3c4c(nn3-c3cc(C)c(F)c(C)c3)CCN(C(=O)c3cc5cc(C6CCOCC6)ccc5n3[C@@]3(c5noc(=O)[nH]5)C[C@@H]3C)[C@H]4C)c2=O)ccc1P(=O)(C1CC1)C1CC1 [Compound 132a, 3-((1S,2S)-1-(2-((S)-3-(3-(4-(dicyclopropylphosphoryl)-3-(methylamino)phenyl)-2-oxo-2,3-dihydro-1H-imidazol-1-yl)-2-(4-fluoro-3,5-dimethylphenyl)-4-methyl-4,5,6,7-tetrahydro-2H-pyrazolo[4,3-c]pyridine-5-carbonyl)-5-(tetrahydro-2H-pyran-4-yl)-1H-indol-1-yl)-2-methylcyclopropyl)-1,2,4-oxadiazol-5(4H)-one]
0.1 to 0.2 | 0.1 to 1 | CCP(=O)(CC)c1ccc(-n2ccn(-c3c4c(nn3-c3cc(C)c(F)c(C)c3)CCN(C(=O)c3cc5cc(C6CCC(F)(F)CC6)ccc5n3[C@@]3(c5noc(=O)[nH]5)C[C@@H]3C)[C@H]4C)c2=O)cc1NC [Compound 133a, 3-((1S,2S)-1-(2-((S)-3-(3-(4-(diethylphosphoryl)-3-(methylamino)phenyl)-2-oxo-2,3-dihydro-1H-imidazol-1-yl)-2-(4-fluoro-3,5-dimethylphenyl)-4-methyl-4,5,6,7-tetrahydro-2H-pyrazolo[4,3-c]pyridine-5-carbonyl)-5-(4,4-difluorocyclohexyl)-1H-indol-1-yl)-2-methylcyclopropyl)-1,2,4-oxadiazol-5(4H)-one]
< 0.1 | ≤ 0.1 | CCP(=O)(CC)c1ccc(-n2ccn(-c3c4c(nn3-c3cc(C)c(F)c(C)c3)CCN(C(=O)c3cc5cc(C6CCOCC6)ccc5n3C3(c5noc(=O)[nH]5)CC3)[C@H]4C)c2=O)cc1NC [Compound 135a, (S)-3-(1-(2-(3-(3-(4-(diethylphosphoryl)-3-(methylamino)phenyl)-2-oxo-2,3-dihydro-1H-imidazol-1-yl)-2-(4-fluoro-3,5-dimethylphenyl)-4-methyl-4,5,6,7-tetrahydro-2H-pyrazolo[4,3-c]pyridine-5-carbonyl)-5-(tetrahydro-2H-pyran-4-yl)-1H-indol-1-yl)cyclopropyl)-1,2,4-oxadiazol-5(4H)-one]
0.2 to 0.5 | 0.1 to 1 | CCP(=O)(CC)c1ccc(-n2ccn(-c3c4c(nn3-c3cc(C)c(F)c(C)c3)CCN(C(=O)c3cc5cc(C6CCOCC6)ccc5n3[C@@]3(c5noc(=O)[nH]5)C[C@@H]3C)[C@H]4C)c2=O)cc1OC(F)F [Compound 136a, 3-((1S,2S)-1-(2-((S)-3-(3-(4-(diethylphosphoryl)-3-(difluoromethoxy)phenyl)-2-oxo-2,3-dihydro-1H-imidazol-1-yl)-2-(4-fluoro-3,5-dimethylphenyl)-4-methyl-4,5,6,7-tetrahydro-2H-pyrazolo[4,3-c]pyridine-5-carbonyl)-5-(tetrahydro-2H-pyran-4-yl)-1H-indol-1-yl)-2-methylcyclopropyl)-1,2,4-oxadiazol-5(4H)-one]
< 0.1 | ≤ 0.1 | CCP(=O)(CC)c1ccc(-n2ccn(-c3c4c(nn3-c3cc(C)c(F)c(C)c3)CCN(C(=O)c3cc5cc(C6CCOCC6)ccc5n3[C@@]3(c5noc(=O)[nH]5)C[C@@H]3C)[C@H]4C)c2=O)cc1N [Compound 138a, 3-((1S,2S)-1-(2-((S)-3-(3-(3-amino-4-(diethylphosphoryl)phenyl)-2-oxo-2,3-dihydro-1H-imidazol-1-yl)-2-(4-fluoro-3,5-dimethylphenyl)-4-methyl-4,5,6,7-tetrahydro-2H-pyrazolo[4,3-c]pyridine-5-carbonyl)-5-(tetrahydro-2H-pyran-4-yl)-1H-indol-1-yl)-2-methylcyclopropyl)-1,2,4-oxadiazol-5(4H)-one]
< 0.1 | ≤ 0.1 | CCP(=O)(CC)c1ncc(-n2ccn(-c3c4c(nn3-c3cc(C)c(F)c(C)c3)CCN(C(=O)c3cc5cc(C6CCOCC6)ccc5n3[C@@]3(c5noc(=O)[nH]5)C[C@@H]3C)[C@H]4C)c2=O)cc1NC [Compound 139a, 3-((1S,2S)-1-(2-((S)-3-(3-(6-(diethylphosphoryl)-5-(methylamino)pyridin-3-yl)-2-oxo-2,3-dihydro-1H-imidazol-1-yl)-2-(4-fluoro-3,5-dimethylphenyl)-4-methyl-4,5,6,7-tetrahydro-2H-pyrazolo[4,3-c]pyridine-5-carbonyl)-5-(tetrahydro-2H-pyran-4-yl)-1H-indol-1-yl)-2-methylcyclopropyl)-1,2,4-oxadiazol-5(4H)-one]
0.5 to 5 | 0.1 to 1 | CCP(=O)(CC)c1c(C)cc(-n2ccn(-c3c4c(nn3-c3cc(C)c(F)c(C)c3)CCN(C(=O)c3cc5cc(C6CCOCC6)ccc5n3[C@@]3(c5noc(=O)[nH]5)C[C@@H]3C)[C@H]4C)c2=O)cc1NC [Compound 140a, 3-((1S,2S)-1-(2-((S)-3-(3-(4-(diethylphosphoryl)-3-methyl-5-(methylamino)phenyl)-2-oxo-2,3-dihydro-1H-imidazol-1-yl)-2-(4-fluoro-3,5-dimethylphenyl)-4-methyl-4,5,6,7-tetrahydro-2H-pyrazolo[4,3-c]pyridine-5-carbonyl)-5-(tetrahydro-2H-pyran-4-yl)-1H-indol-1-yl)-2-methylcyclopropyl)-1,2,4-oxadiazol-5(4H)-one]
< 0.1 | ≤ 0.1 | CNc1cc(-n2ccn(-c3c4c(nn3-c3cc(C)c(F)c(C)c3)CCN(C(=O)c3cc5cc(C6CCOCC6)ccc5n3[C@@]3(c5noc(=O)[nH]5)C[C@@H]3C)[C@H]4C)c2=O)ccc1P(=O)(C(C)C)C(C)C [Compound 141a, 3-((1S,2S)-1-(2-((S)-3-(3-(4-(diisopropylphosphoryl)-3-(methylamino)phenyl)-2-oxo-2,3-dihydro-1H-imidazol-1-yl)-2-(4-fluoro-3,5-dimethylphenyl)-4-methyl-4,5,6,7-tetrahydro-2H-pyrazolo[4,3-c]pyridine-5-carbonyl)-5-(tetrahydro-2H-pyran-4-yl)-1H-indol-1-yl)-2-methylcyclopropyl)-1,2,4-oxadiazol-5(4H)-one]

From patent US20240366639A1, “HETEROCYCLIC GLP-1 AGONISTS” (GASHERBRUM BIO, INC., priority 2021, published 2024)
